The subject of the assay is adiponectin promoter. The assay is described as follows: Luciferase reporter screening of promoter transcriptional activity in stable C2C12 cell lines. In kind it is cell-based, mouse. Particulars: for activation ratio: C2C12 stable line, luciferase, vs vehicle; for concentration at which the greatest transactivation was achieved: dose-response curve of the commercial activator on the target promoter. The source says: The following protocol has been followed for the purpose of analyzing the potential therapeutic activity against obesity, type 2 diabetes mellitus and atherosclerosis (ODA metabolic diseases) of the compounds 1-5: • generating cell lines which have stably integrated human promoters of key genes in the development of ODA diseases; • amplifying the human promoter sequence of the target genes starting from commercial human genomic DNA; • cloning the promoter into a suitable vector which allows knowing the transcriptional activity of the promoter sequence, using the luciferase gene as a reporter gene; • generating stable cell lines for each of the promoters cloned into the reporter vectors; • carrying out the screening test with the compounds of the invention on the stable cell lines; • suitably validating the effect obtained with a certain compound which can modify the transcriptional activity of the promoter.
The selected cell line is C2C12, corresponding to myoblasts from mouse muscle tissue.
The luciferase activity is measured according to the following protocol: • a) 50000 and […] cells/well (and in duplicate) are seeded in a P24 plate. • b) After approximately 24 hours, the medium is removed from the cells and each well is washed with PBS 1× (because DMEM interferes in the measurement of the activity of the reporter gene) • c) 100 μl of luciferase developing reagent are added in each cell (Bright-Glo™ Luciferase Assay system—Promega). This reagent carries the reporter gene substrate and luminescence is generated as the product of the enzymatic reaction. The cells which have acquired the reporter gene, and therefore the target promoter, will be luminescent upon being in the presence of said substrate. To record the measurement of luciferase activity, the plate is shaken for 30 seconds right after adding the developing reagent and after 2 minutes, the volume is collected and transferred to a 96-well plate (P96), which can be read in an illuminometer. • d) The suitable luminescence program is selected, such that the reading lasts 5 seconds per well, and the arbitrary luminescence units are recorded for each obtained clone or, in other words, for each stable cell line.
Carrying out the screening test: The clones used in the screening are: C2C12 Adipo (adiponectin promoter), C2C12 UCP3 (UCP3 promoter), C2C12 AdR1 (adiponectin receptor 1 promoter) and C2C12 Nmu (neuromedin promoter).
Before any screening experiment, the suitable number of cells for carrying out such experiments must first be provided. To that end, 2 T75 are usually seeded (with approximately 1×10^6 cells in each bottle), such that after four days, the cells have reached confluence and are ready for the screening protocol detailed below to be carried out. • 1. Day 1: 30000 cells per well are seeded in white P96 plates; these plates allow amplifying the luminescence signal and improving the reading. The cells are grown in 100 μl of hygromycin-free medium. • 2. Day 2: 24 hours after the seeding, the cells are stimulated with compounds 1-5. […]
[drawing 16] • ? In the indicated positions, the baseline transcriptional activity of the promoters to be studied is recorded in the presence of the medium in which compounds 1-5 (vehicle) are dissolved. • ? In the indicated positions, the transcriptional activity of the promoters to be studied is recorded in the presence of a known commercial activator of the target promoter. […]
On the technique in general: In a reporter assay the amount or activity of a reporter protein is the signal.

[1] abbreviates: 0.5 μM, 48 hours after stimulation.
Where [2] appears, read: 1 μM, 48 hours after stimulation.
The mark [3] stands for this setting: 10 μM, 48 hours after stimulation.
The mark [4] stands for this setting: 25 μM, 48 hours after stimulation.
The mark [5] stands for this setting: 5 μM, 48 hours after stimulation.
Where [6] appears, read: 20 μM, 48 hours after stimulation.

Regarding `O=C(Nc1nccs1)c1n[nH]c2ccccc12` [Compound 1, thiazol-2-ylamide compound of 1H-indazole-3-carboxylic acid], the activation ratio is, setting by setting: (0.1 μM, 48 hours after stimulation) 1.28; under setting [1], 3.66; under setting [2], 4.59; under setting [3], 5.52; under setting [4], 3.58; (50 μM, dose-response curve) 2.29. The activation ratio runs as follows: (100 μM, dose-response curve) 0.71; (400 μM, dose-response curve) 0.12.
Take `O=C(Nc1nccs1)c1ccccn1` [Compound 3, pyridin-2-carboxylic acid thiazol-2-yl-amide]: the activation ratio turned out to be 1.40 under setting [1]; 1.71 under setting [2]; 3.23 under setting [5]; 3.82 under setting [3]; 3.73 under setting [4]; 3.20 (50 μM, dose-response curve). Moreover, the activation ratio (100 μM, dose-response curve) amounted to 1.61 and the activation ratio (200 μM, dose-response curve) was 0.75.
In the case of `O=c1c(-c2ccc(O)cc2)coc2cc(O)ccc12` [Daidzein], the “concentration at which the greatest transactivation was achieved” value (from here on “concentration”) came out at 20 µM. Besides, under setting [2], the activation ratio is listed as 1.68. Further, the activation ratio under setting [5] is 3.03. Also, the activation ratio under setting [3] was 3.76. Moreover, the activation ratio under setting [6] amounted to 4.04. In addition, the activation ratio (50 μM, dose-response curve) was 4.05. For the setting “100 μM, dose-response curve”, the activation ratio was found to be 3.71.
With `O=c1c(-c2ccc(O)cc2)coc2cc(O)cc(O)c12` [Genistein], the “concentration” value worked out at 20 µM. Further, the activation ratio under setting [2] is given as 1.47. For the same molecule, the activation ratio under setting [5] was 2.25. Further, the activation ratio under setting [3] amounted to 3.59. Besides, the activation ratio under setting [6] is 3.05. The activation ratio (50 μM, dose-response curve) turned out to be 1.97. The activation ratio (100 μM, dose-response curve) was 1.75. Moreover, where the note is “200 μM, dose-response curve”, the activation ratio was found to be 1.59.
`CN(CCOc1ccc(CC2SC(=O)NC2=O)cc1)c1ccccn1` (centres unmarked) [Rosiglitazone]: the “concentration” value stood at 20 µM.
